Among the data in patent US20260297083A1, “SUBSTITUTED ACETYLENE COMPOUND DERIVATIVES AND THEIR PHARMACEUTICAL USE” (AVELOS THERAPEUTICS INC., priority 2023, published 2026) are IC50 values, retold here.

pIC50: −log10 of the molar value.

One assay concerns DLD-1 BRCA2(−/−) Cell. Kind of assay: Cell viability assay (Resazurin) in DLD1-BRCA2 cells. It counts as cell-based. Conditions: 14 days, 1,500 cells/well, final DMSO 1%. The method, then: DLD1-BRCA2 KG (Horizon Discovery, Cat #HD 105-007) cells and DLD1-parental cells were maintained in culture media (RPMI-1640 including 2 mM L-glutamin and 25 mM sodium bicarbonate, supplemented with 10% FBS), at 37° C. in a humidified atmosphere with 5% CO2. Cells were seeded at the final concentration of 1,500 cells/well (DLD1-BRCA2 KG) and 600 cells/well (DLD1-parental) in a 96-well plate. Four hours later, test compounds were added (the final concentration of DMSO was 1%) to the cells and media were replaced every 3-4 days for 14 days. To measure viability, cells were incubated in culture media supplemented with 0.1 mg/ml of Resazurin (Merck, Cat #R7017) for 4 hours. The fluorescence was measured at Ex/Em=560 nm/590 nm using EnSight multimode plate reader (Perkin Elmer). Data analysis and IC50 calculation was done using GraphPad Prism (Version 10.0.2).
(Alamar Blue is a resazurin reagent that responds to reducing activity.)
Turning to “(S)-N-(3-(6-aminopyridazin-3-yl)prop-2-yn-1- yl)-2-(6-methyl-4-(trifluoromethyl)pyridin-2- yl)-N-(m-tolyl)isothiazolidine-3-carboxamide 1,1-dioxide [Example 19]”, the pIC50 (usually the negative decadic logarithm of the IC50, by convention in mol/L) is 5.30 to 5.96.

The assay is the same for the next values; noted with them: Homo sapiens, DLD-1, 336 h, 14 days, 1,500 cells/well, final DMSO 1%.
With `Cc1cc(C(F)(F)F)cc(N2[C@H](C(=O)N(CC#Cc3cnc(C(N)=O)cn3)c3ccc(F)c(C)c3)CCS2(=O)=O)n1` [Example 61, (S)-N-(3-(5-carbamoylpyrazin-2-yl)prop-2-yn-1-yl)-N-(4-fluoro-3-methylphenyl)-2-(6-methyl-4-(trifluoromethyl)pyridin-2-yl)isothiazolidine-3-carboxamide 1,1-dioxide], the pIC50 was less than 5.29.
The molecule `Cc1cc(C(F)(F)F)cc(N2[C@H](C(=O)N(CC#Cc3cncc(C(=O)N4C[C@H](C)N[C@@H](C)C4)n3)c3ccc(F)c(C)c3)CCS2(=O)=O)n1` [Example 74, (S)-N-(3-(6-((3S,5S)-3,5-dimethylpiperazine-1-carbonyl)pyrazin-2-yl)prop-2-yn-1-yl)-N-(4-fluoro-3-methylphenyl)-2-(6-methyl-4-(trifluoromethyl)pyridin-2-yl)isothiazolidine-3-carboxamide 1,1-dioxide] showed a pIC50 of more than 6.00.
In turn, `Cc1cc(C(F)(F)F)cc(N2[C@H](C(=O)N(CC#Cc3cnc(N4C[C@H](C)N(C(C)C)[C@@H](C)C4)cn3)c3ccc(F)c(C)c3)CCS2(=O)=O)n1` [Example 53, (S)-N-(4-fluoro-3-methylphenyl)-N-(3-(5-((3S,5S)-4-isopropyl-3,5-dimethylpiperazin-1-yl)pyrazin-2-yl)prop-2-yn-1-yl)-2-(6-methyl-4-(trifluoromethyl)pyridin-2-yl)isothiazolidine-3-carboxamide 1,1-dioxide] gave a pIC50 of more than 6.00.
Same read-out and setting: under `Cc1cc(C(F)(F)F)cc(N2[C@H](C(=O)N(CC#Cc3cnc(C(=O)N4CCOCC4)cn3)c3ccc(F)c(C)c3)CCS2(=O)=O)n1` [Example 69, (S)-N-(4-fluoro-3-methylphenyl)-2-(6-methyl-4-(trifluoromethyl)pyridin-2-yl)-N-(3-(5-(morpholine-4-carbonyl)pyrazin-2-yl)prop-2-yn-1-yl)isothiazolidine-3-carboxamide 1,1-dioxide] stands more than 6.00; under `CC(=O)Nc1cnc(C#CCN(C(=O)[C@@H]2CCS(=O)(=O)N2c2cc(C(F)(F)F)cc(C)n2)c2ccc(F)c(C)c2)cn1` [Example 34, (S)-N-(3-(5-acetamidopyrazin-2-yl)prop-2-yn-1-yl)-N-(4-fluoro-3-methylphenyl)-2-(6-methyl-4-(trifluoromethyl)pyridin-2-yl)isothiazolidine-3-carboxamide 1,1-dioxide], 5.30 to 5.96.
`Cc1cc(C(F)(F)F)cc(N2[C@H](C(=O)N(CC#Cc3cncc(N4CCOCC4)n3)c3ccc(F)c(C)c3)CCS2(=O)=O)n1` [Example 42, (S)-N-(4-fluoro-3-methylphenyl)-2-(6-methyl-4-(trifluoromethyl)pyridin-2-yl)-N-(3-(6-morpholinopyrazin-2-yl)prop-2-yn-1-yl)isothiazolidine-3-carboxamide 1,1-dioxide] showed a pIC50 of more than 6.00.
Same read-out and setting: the figure for `Cc1cc(C(F)(F)F)cc(N2[C@H](C(=O)N(CC#Cc3cc(N4CCOCC4)nc(C(F)(F)F)n3)c3ccc(F)c(C)c3)CCS2(=O)=O)n1` [Example 76, (S)-N-(4-fluoro-3-methylphenyl)-2-(6-methyl-4-(trifluoromethyl)pyridin-2-yl)-N-(3-(6-morpholino-2-(trifluoromethyl)pyrimidin-4-yl)prop-2-yn-1-yl)isothiazolidine-3-carboxamide 1,1-dioxide] is more than 6.00; for `COc1ccc(C#CCN(C(=O)[C@@H]2CCS(=O)(=O)N2c2cc(C(F)(F)F)cc(C)n2)c2ccc(F)c(C)c2)nn1` [Example 27, (S)-N-(4-fluoro-3-methylphenyl)-N-(3-(6-methoxypyridazin-3-yl)prop-2-yn-1-yl)-2-(6-methyl-4-(trifluoromethyl)pyridin-2-yl)isothiazolidine-3-carboxamide 1,1-dioxide] it is more than 6.00.
On the same count and under the same terms, under `Cc1cc(C(F)(F)F)cc(N2[C@H](C(=O)N(CC#Cc3cncc(C(=O)N4CC5CCC(C4)N5)n3)c3ccc(F)c(C)c3)CCS2(=O)=O)n1` [Example 73, (3S)-N-(3-(6-(3,8-diazabicyclo[3.2.1]octane-3-carbonyl)pyrazin-2-yl)prop-2-yn-1-yl)-N-(4-fluoro-3-methylphenyl)-2-(6-methyl-4-(trifluoromethyl)pyridin-2-yl)isothiazolidine-3-carboxamide 1,1-dioxide] stands more than 6.00.
The same measure, in the same setting: under `Cc1cc(C(F)(F)F)cc(N2[C@H](C(=O)N(CC#Cc3ncc(C(N)=O)cn3)c3ccc(F)c(C)c3)CCS2(=O)=O)n1` [Example 81, (S)-N-(3-(5-carbamoylpyrimidin-2-yl)prop-2-yn-1-yl)-N-(4-fluoro-3-methylphenyl)-2-(6-methyl-4-(trifluoromethyl)pyridin-2-yl)isothiazolidine-3-carboxamide 1,1-dioxide] stands more than 6.00; under `Cc1cc(C(F)(F)F)cc(N2[C@H](C(=O)N(CC#Cc3cnc4c(c3)C(C)(C)N(C)C4=O)c3ccc(F)c(C)c3)CCS2(=O)=O)n1` [Example 99, (S)-N-(4-fluoro-3-methylphenyl)-2-(6-methyl-4-(trifluoromethyl)pyridin-2-yl)-N-(3-(5,5,6-trimethyl-7-oxo-6.7-dihydro-5H-pyrrolo[3,4-b]pyridin-3-yl)prop-2-yn-1-yl)isothiazolidine-3-carboxamide 1,1-dioxide], 5.30 to 5.96; under `Cc1cc(C(F)(F)F)cc(N2[C@H](C(=O)N(CC#Cc3cncc(C(=O)N4CCNCC4)n3)c3ccc(F)c(C)c3)CCS2(=O)=O)n1` [Example 72, (S)-N-(4-fluoro-3-methylphenyl)-2-(6-methyl-4-(trifluoromethyl)pyridin-2-yl)-N-(3-(6-(piperazine-1-carbonyl)pyrazin-2-yl)prop-2-yn-1-yl)isothiazolidine-3-carboxamide 1,1-dioxide], more than 6.00.
In the case of `Cc1cc(C(F)(F)F)cc(N2[C@H](C(=O)N(CC#Cc3cc(C)c(F)c(C)n3)c3ccc(F)c(C)c3)CCS2(=O)=O)n1` [Example 90, (S)-N-(4-fluoro-3-methylphenyl)-N-(3-(5-fluoro-4,6-dimethylpyridin-2-yl)prop-2-yn-1-yl)-2-(6-methyl-4-(trifluoromethyl)pyridin-2-yl)isothiazolidine-3-carboxamide 1,1-dioxide], the pIC50 was 5.30 to 5.96.
The same measure, in the same setting: the figure for `Cc1cc(C(F)(F)F)cc(N2[C@H](C(=O)N(CC#Cc3n[nH]c(=O)c4ccccc34)c3ccc(F)c(C)c3)CCS2(=O)=O)n1` [Example 101, (S)-N-(4-fluoro-3-methylphenyl)-2-(6-methyl-4-(trifluoromethyl)pyridin-2-yl)-N-(3-(4-oxo-3,4-dihydrophthalazin-1-yl)prop-2-yn-1-yl)isothiazolidine-3-carboxamide 1,1-dioxide] is 5.30 to 5.96; for `Cc1cc(C(F)(F)F)cc(N2[C@H](C(=O)N(CC#Cc3cnc(N4CC5(COC5)C4)cn3)c3ccc(F)c(C)c3)CCS2(=O)=O)n1` [Example 38, (S)-N-(3-(5-(2-oxa-6-azaspiro[3.3]heptan-6-yl)pyrazin-2-yl)prop-2-yn-1-yl)-N-(4-fluoro-3-methylphenyl)-2-(6-methyl-4-(trifluoromethyl)pyridin-2-yl)isothiazolidine-3-carboxamide 1,1-dioxide] it is 5.30 to 5.96.
`CCN1CCN(c2cnc(C#CCN(C(=O)[C@@H]3CCS(=O)(=O)N3c3cc(C(F)(F)F)cc(C)n3)c3ccc(F)c(C)c3)cn2)CC1` [Example 50, (S)-N-(3-(5-(4-ethylpiperazin-1-yl)pyrazin-2-yl)prop-2-yn-1-yl)-N-(4-fluoro-3-methylphenyl)-2-(6-methyl-4-(trifluoromethyl)pyridin-2-yl)isothiazolidine-3-carboxamide 1,1-dioxide] gave a pIC50 of more than 6.00.
The same measure, in the same setting: the figure for `Cc1cc(C(F)(F)F)cc(N2[C@H](C(=O)N(CC#Cc3cc(C)c(N)c(C)n3)c3ccc(F)c(C)c3)CCS2(=O)=O)n1` [Example 91, (S)-N-(3-(5-amino-4,6-dimethylpyridin-2-yl)prop-2-yn-1-yl)-N-(4-fluoro-3-methylphenyl)-2-(6-methyl-4-(trifluoromethyl)pyridin-2-yl)isothiazolidine-3-carboxamide 1,1-dioxide] is 5.30 to 5.96; for `Cc1cc(C(F)(F)F)cc(N2[C@H](C(=O)N(CC#Cc3ncc(N4CCOCC4)cn3)c3ccc(F)c(C)c3)CCS2(=O)=O)n1` [Example 79, (S)-N-(4-fluoro-3-methylphenyl)-2-(6-methyl-4-(trifluoromethyl)pyridin-2-yl)-N-(3-(5-morpholinopyrimidin-2-yl)prop-2-yn-1-yl)isothiazolidine-3-carboxamide 1,1-dioxide] it is more than 6.00; for `Cc1cc(C(F)(F)F)cc(N2[C@H](C(=O)N(CC#Cc3cnc(N4CCOCC4)c(C)n3)c3ccc(F)c(C)c3)CCS2(=O)=O)n1` [Example 45, (S)-N-(4-fluoro-3-methylphenyl)-2-(6-methyl-4-(trifluoromethyl)pyridin-2-yl)-N-(3-(6-methyl-5-morpholinopyrazin-2-yl)prop-2-yn-1-yl)isothiazolidine-3-carboxamide 1,1-dioxide] it is more than 6.00.
The same measure, in the same setting: the figure for `Cc1cc(C(F)(F)F)cc(N2[C@H](C(=O)N(CC#Cc3cnc(-c4c[nH]nn4)cn3)c3ccc(F)c(C)c3)CCS2(=O)=O)n1` [Example 56, (S)-N-(3-(5-(1H-1,2,3-triazol-4-yl)pyrazin-2-yl)prop-2-yn-1-yl)-N-(4-fluoro-3-methylphenyl)-2-(6-methyl-4-(trifluoromethyl)pyridin-2-yl)isothiazolidine-3-carboxamide 1,1-dioxide] is more than 6.00.
